Columns and labels:
Type in all cases: cell-based
[1] = tested on: Normal human epidermal keratinocytes; assay: Synthesis of total epidermal glycosaminoglycans (incorporation of 3H-glucosamine); settings: 1.5 mM, 72 h incubation
Description: Normal human epidermal keratinocytes are cultivated in SFM complete medium for 24 hours. The medium is then removed, and replaced with SFM medium without supplements containing the product PK11195 or the pharmacological reference. It is incubated for 72 h at 37° C. Tritiated glucosamine (D-[6-^3H]-glucosamine, Amersham TRK398 (1.3 Tbq/mmol, 35 Ci/mmol) is added for the last 24 hours of incubation. The glycosaminoglycans are extracted from the culture medium and from the deposited matrix, with a chaotropic buffer, then purified by ion-exchange chromatography. The radioactivity incorporated in the […] molecules (mostly GAGs) is counted by liquid scintillation. The results are expressed as percentage change in synthesis of the GAGs relative to the control.

[2] = tested on: Normal human epidermal keratinocytes; assay: Differentiation of keratinocytes: determination of transglutaminase K1 (TGK1) activity by radioassay
Description: (§1) Normal human epidermal keratinocytes are cultivated at 37° C. in keratinocyte-SFM medium (Gibco BRL 3701022) supplemented with EGF (epidermal growth factor) and pituitary extract, with or without calcium supplement (1.5 mM). After culture for 24 hours, the medium is replaced with medium containing the actives to be tested or reference substances. Culture is continued for 96 hours. The transglutaminase K1 (TGK1) activity is evaluated by radioassay, by measuring the covalent addition of tritiated putrescine to casein (acceptor protein) for 1 h 30 min at 37° C. The casein is precipitated with TCA (trichloroacetic acid) on a dry filter and then counted in liquid scintillation. The proteins in each sample are determined by means of a kit (BioRad 500-0116). Statistical analysis of the data is performed by analysis of variance (ANOVA) using Dunnett's multiple comparison test.
(§2) The molecule PK11195 (or 1-(2-chlorophenyl)-N-(1-methyl-propyl)-3-isoquinoline carboxamide), a specific inhibitor of the peripheral benzodiazepine receptor, was tested at respective concentrations of 10^−4 M and 10^−6 M. The active was added to the keratinocyte culture medium, containing calcium or not containing calcium. The effect of a medium alone containing 1.5 mM of calcium (pro-differentiation agent) was used as a positive control of differentiation. […]

[3] = tested on: Normal human epidermal keratinocytes; assay: Cellular viability of keratinocytes in the TGK1 differentiation cultures; settings: 10^−6 M; medium with calcium (1.5 mM); 96 h culture; control = 100%
Description: as §1, §2

For [Ca+2].[Cl-].[Cl-] [CaCl2], the “Incorporation of 3H-glucosamine, CPM” value ([1]; control 10624 CPM) was 16791 CPM and the “Incorporation of 3H-glucosamine, Percentage/control” value ([1]; p<0.01) was 158%.

In the case of CC1=C(/C=C/C(C)=C/C=C/C(C)=C/CO)C(C)(C)CCC1 [retinol], the TGK1 activity ([2]; 10^−6 M, medium with calcium (1.5 mM), 96 h culture, control = 100%, *p<0.05) is reported as 56%, the “decrease in TGK1 activity” value ([2]; medium with retinol 10^−6 M (anti-differentiation reference)) is reported as −44% and the Cellular viability [3] is reported as 103%.
